Results taken from patent US12398121B2 (Nuvation Bio Inc., priority 2018, dated 2025).

What was measured:
Human recombinant PARP1 = Human recombinant PARP1 (Homo sapiens, UniProt P09874); assay: RBC HotSpot PARP1 radioisotope-based filter binding assay; type: biochemical; conditions: 2.5 nM enzyme, histone H4, 10 μM 32P-NAD+; read-out: PARP1 IC50
Description: (§1) The following methods are for evaluating the in vitro biology properties of the test articles. • a. RBC HotSpot Poly(ADP-ribose) Polymerases 1 (PARP1) and Poly(ADP-ribose) Polymerases 2 (PARP2) Assays: The assay principle is radioisotope-based filter binding assay where incorporation of radioisotope-labeled NAD^+ into the substrate captured on filter is detected after washout free NAD^+. Data were analyzed using Excel and GraphPad Prism software for IC50 curve fits. Each assay was conducted with PJ34 as a positive control. • i. PARP1 assay: Human recombinant PARP1 at a final concentration of 2.5 nM was combined with histone H4 (20 μM) and test articles at various concentrations in reaction buffer (50 mM Tris-HCL, pH 8.0, 50 mM NaCl, 10 mM MgCl2, 1 mM DTT, 1% DMSO, and 20 μg/mL activated DNA). The solution was inoculated for 20 min at room temperature and the reaction initiated by adding [adenylate-^32P]-Nicotinamide Adenine Dinucleotide, ^32P-NAD^+ at a final concentration of 10 μM. After incubation for 2 hour at room temperature, the reaction mixture was filtered and washed with 0.75% phosphoric acid for radioactivity detection. • ii. PARP2 assay: Human recombinant PARP2 at a final concentration of 2.5 nM was combined with histone H3 (20 μM) and test articles at various concentrations in reaction buffer (50 mM Tris-HCL, pH 8.0, 50 mM NaCl, 10 mM MgCl2, 1 mM DTT, 1% DMSO, and 20 μg/mL activated DNA). The solution was inoculated for 20 min at room temperature and the reaction was initiated by adding [adenylate-^32P]-Nicotinamide Adenine Dinucleotide, ^32P-NAD^+ at a final concentration of 10 μM. After incubation for 2 hour at room temperature, the reaction mixture was filtered and washed with 0.75% phosphoric acid for radioactivity detection. • b. AR binding assay: AR in LNCaP cytosol was used for determining the binding affinity of test articles and the reference compound—progesterone (Sigma, Cat: E2785, St. Louis, MO). IC50s were determined using 8 concentrations/compound. Cytosol was plated at 200 μg/well (100 μL) into a 96-well conical polypropylene plate (Agilent, Cat: 5042-1385, Santa Clara, CA) and mixed with 3 μL of test compound. After adding 100 μL of ^3H-methyltrienolone (PerkinElmer, Cat: NET590250UC, San Jose, CA), the plate was sealed and shaken at 300 rpm at 4° C. for 24 hours. Post incubation, 100 μL of radioligand adsorption buffer containing 10 mM Tris-HCl, pH 7.4; 1.5 mM EDTA; 1 mM DTT; 0.25% charcoal; 0.0025% dextran was added to individual well. Plate was shaken for 15 min at 4′C followed by centrifugation at 3000 rpm for 30 min at 4° C. 150 μL of supernatant was transferred into scint-tube (PerkinElmer, Cat: 6000192) and mixed with 2 mL of Ultima Gold Cocktail (PerkinElmer, Cat: 6013329). Radioactivity was counted using a TriCarb 2910 TR scintillation counter (PerkinElmer). Inhibition of the radioactivity by test articles were calculated using the equation below: % Inhibition=(1−(Assay well−Average_LC)/(Average_HC−Average_LC))×100%.

Human recombinant PARP2 = Human recombinant PARP2 (Homo sapiens, UniProt Q9UGN5); assay: RBC HotSpot PARP2 radioisotope-based filter binding assay; type: biochemical; conditions: 2.5 nM enzyme, histone H3, 10 μM 32P-NAD+; read-out: PARP2 IC50
Sequence of Human recombinant PARP2 (Q9UGN5 whole entry): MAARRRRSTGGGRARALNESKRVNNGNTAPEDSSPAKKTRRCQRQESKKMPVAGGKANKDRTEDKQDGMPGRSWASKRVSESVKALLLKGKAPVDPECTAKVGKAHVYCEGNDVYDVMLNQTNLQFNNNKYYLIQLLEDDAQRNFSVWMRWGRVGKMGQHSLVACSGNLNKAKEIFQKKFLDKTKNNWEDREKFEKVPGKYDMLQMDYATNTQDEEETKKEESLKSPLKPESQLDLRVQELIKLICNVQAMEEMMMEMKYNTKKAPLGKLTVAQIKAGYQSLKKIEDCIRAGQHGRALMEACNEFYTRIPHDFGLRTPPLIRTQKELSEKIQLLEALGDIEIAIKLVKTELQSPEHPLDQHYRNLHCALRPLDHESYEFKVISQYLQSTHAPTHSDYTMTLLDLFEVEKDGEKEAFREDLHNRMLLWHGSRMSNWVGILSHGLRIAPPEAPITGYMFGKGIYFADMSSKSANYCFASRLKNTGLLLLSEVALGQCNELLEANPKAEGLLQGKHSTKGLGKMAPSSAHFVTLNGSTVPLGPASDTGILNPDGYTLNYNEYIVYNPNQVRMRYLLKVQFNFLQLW
Description: as §1

LNCaP cells = assay: Cell proliferation assay (CellTiter Glo), LNCaP; type: cell-based; conditions: Homo sapiens, 168 h, cell growth inhibition, six or seven days total treatment, read-out: LNCaP IC50
Description: (§2) IC50 values were calculated and graphed using the model “log(inhibitor) vs. response—Variable slope” included in GraphPad Prism 5 (San Diego, CA). The Ki values were further calculated using the equation below where [L] was the radioligand concentration (1 nM) using in this study. Kd value was 0.332 nM. Ki=IC50/(1+[L]/Kd) c. AR transactivation: Human AR cloned into a CMV vector backbone was used for the transactivation study. HEK-293 cells were plated at 80,000 cells per well of a 24 well plate in DME+5% csFBS. Twenty four hours later, the cells were transfected using Lipofectamine (Invitrogen, Carlsbad, CA) with 0.25 μg GRE-LUC, 0.01 μg CMV-LUC (renilla luciferase) and 25 ng of the AR in OPTIMEM medium. The cells were treated 24 hrs after transfection with various ligands (10^−12 to 10^−5 M final concentrations) and luciferase assay were performed 48 hours after transfection. Firefly values were normalized to renilla luciferase values and the values were represented as relative light units (RLU). Agonist and antagonist assays for the test article were performed in the absence and in the combination with 0.1 nM R1881, respectively. Data were represented as EC50 (for agonists) and IC50 (for antagonists) obtained from four parameter logistics curve. Cell culture and proliferation assays: LNCaP, PC-3, 22RV1, MCF-7, HT-29, and HCT-116 cells were procured from American Type Culture Collection (ATCC). Cells were cultured in medium recommended by the ATCC. Cell culture medium was obtained from Fisher scientific (Waltham, MA) and serum was obtained from Hyclone (San Angelo, TX).
Cells were plated at varying density in the respective growth medium in 96 well plates. 24 hr later, cells were treated, in triplicate or quadruplicate, with test articles prepared in a range of concentrations by series dilution of DMSO stock solutions in growth medium and incubated for three to seven days. The number of viable 22RV1 and HT-29 cells was measured using CellTiter Glo assay (CTG, Promega, Madison, WI) after three days of treatment. The other types of cancer cells were re-treated at three or four days and the number of viable cells was measured using CTG assay after a total treatment time of six or seven days. Cell viability data were plotted using GraphPad Prism (GraphPad Software, Inc., San Diego, CA). In addition, a nonlinear regression model with a sigmoidal dose response and variable slope within GraphPad Prism was used to calculate the IC50 value of individual test articles. Additional cell proliferation assays: Other cancer cell lines are tested in a cell proliferation assay. For example, SK-OV-3 or OVCAR3 ovarian cancer cells are tested. Cells are cultured in medium recommended by the supplier (e.g., ATCC or JCRB Cell Bank), at 37° C. in a 5% CO2 environment. For the proliferation assay, cells are plated in the growth medium in 96 well plates. Seeding density is adjusted according to the cell type. 24 hr later, cells are treated, in triplicate or quadruplicate, with test articles prepared in a range of concentrations by series dilution of DMSO stock solutions in growth medium, and typically incubated for three to seven days, with test article-containing medium replaced after three or four days. The number of viable cells is measured using CellTiter Glo assay (CTG, Promega, Madison, WI) or similar. Cell viability data are plotted using GraphPad Prism (GraphPad Software, Inc., San Diego, CA). […]

PC-3 cells = assay: Cell proliferation assay (CellTiter Glo), PC-3; type: cell-based; conditions: Homo sapiens, PC-3, 168 h; cell growth inhibition, six or seven days total treatment; read-out: PC-3 IC50
Description: as §2
(§3) Cells were plated at varying density in the respective growth medium in 96 well plates. 24 hr later, cells were treated, in triplicate or quadruplicate, with test articles prepared in a range of concentrations by series dilution of DMSO stock solutions in growth medium and incubated for three to seven days. The number of viable 22RV1 and HT-29 cells was measured using CellTiter Glo assay (CTG, Promega, Madison, WI) after three days of treatment. The other types of cancer cells were re-treated at three or four days and the number of viable cells was measured using CTG assay after a total treatment time of six or seven days. Cell viability data were plotted using GraphPad Prism (GraphPad Software, Inc., San Diego, CA). In addition, a nonlinear regression model with a sigmoidal dose response and variable slope within GraphPad Prism was used to calculate the IC50 value of individual test articles. Additional cell proliferation assays: Other cancer cell lines are tested in a cell proliferation assay. For example, SK-OV-3 or OVCAR3 ovarian cancer cells are tested. […] The number of viable cells is measured using CellTiter Glo assay (CTG, Promega, Madison, WI) or similar. […]

HCT-116 cells = assay: Cell proliferation assay (CellTiter Glo), HCT-116; type: cell-based; conditions: Homo sapiens, HCT-116, 168 h; cell growth inhibition, six or seven days total treatment; read-out: HCT-116 IC50
Description: as §2, §3

22RV1 cells = assay: Cell proliferation assay (CellTiter Glo), 22RV1; type: cell-based; conditions: Homo sapiens, 22Rv1, 72 h; cell growth inhibition, three days of treatment; read-out: 22RV1 IC50
Description: as §2
Cells were plated at varying density in the respective growth medium in 96 well plates. 24 hr later, cells were treated, in triplicate or quadruplicate, with test articles prepared in a range of concentrations by series dilution of DMSO stock solutions in growth medium and incubated for three to seven days. The number of viable 22RV1 and HT-29 cells was measured using CellTiter Glo assay (CTG, Promega, Madison, WI) after three days of treatment. The other types of cancer cells were re-treated at three or four days and the number of viable cells was measured using CTG assay after a total treatment time of six or seven days. Cell viability data were plotted using GraphPad Prism (GraphPad Software, Inc., San Diego, CA). In addition, a nonlinear regression model with a sigmoidal dose response and variable slope within GraphPad Prism was used to calculate the IC50 value of individual test articles. Additional cell proliferation assays: Other cancer cell lines are tested in a cell proliferation assay. For example, SK-OV-3 or OVCAR3 ovarian cancer cells are tested. Cells are cultured in medium recommended by the supplier (e.g., ATCC or JCRB Cell Bank), at 37° C. in a 5% CO2 environment. For the proliferation assay, cells are plated in the growth medium in 96 well plates. Seeding density is adjusted according to the cell type. 24 hr later, cells are treated, in triplicate or quadruplicate, with test articles prepared in a range of concentrations by series dilution of DMSO stock solutions in growth medium, and typically incubated for three to seven days, with test article-containing medium replaced after three or four days. The number of viable cells is measured using CellTiter Glo assay (CTG, Promega, Madison, WI) or similar. Cell viability data are plotted using GraphPad Prism (GraphPad Software, Inc., San Diego, CA). In addition, a nonlinear regression model with a sigmoidal dose response and variable slope within GraphPad Prism is used to calculate the IC50 value of individual test articles. Similarly, HEK-293 and HeLa calls can also be tested by methods known in the art. • f. Nuclear translocation: LNCaP cells are plated on coverslips in 24 well plates in growth medium. Twenty-four hours after plating, medium is changed to RPMI+1% csFBS and the cells are maintained in this medium for two days. Medium is replaced again and the cells are treated. […]

Sequence of Human recombinant PARP1 (P09874 whole entry): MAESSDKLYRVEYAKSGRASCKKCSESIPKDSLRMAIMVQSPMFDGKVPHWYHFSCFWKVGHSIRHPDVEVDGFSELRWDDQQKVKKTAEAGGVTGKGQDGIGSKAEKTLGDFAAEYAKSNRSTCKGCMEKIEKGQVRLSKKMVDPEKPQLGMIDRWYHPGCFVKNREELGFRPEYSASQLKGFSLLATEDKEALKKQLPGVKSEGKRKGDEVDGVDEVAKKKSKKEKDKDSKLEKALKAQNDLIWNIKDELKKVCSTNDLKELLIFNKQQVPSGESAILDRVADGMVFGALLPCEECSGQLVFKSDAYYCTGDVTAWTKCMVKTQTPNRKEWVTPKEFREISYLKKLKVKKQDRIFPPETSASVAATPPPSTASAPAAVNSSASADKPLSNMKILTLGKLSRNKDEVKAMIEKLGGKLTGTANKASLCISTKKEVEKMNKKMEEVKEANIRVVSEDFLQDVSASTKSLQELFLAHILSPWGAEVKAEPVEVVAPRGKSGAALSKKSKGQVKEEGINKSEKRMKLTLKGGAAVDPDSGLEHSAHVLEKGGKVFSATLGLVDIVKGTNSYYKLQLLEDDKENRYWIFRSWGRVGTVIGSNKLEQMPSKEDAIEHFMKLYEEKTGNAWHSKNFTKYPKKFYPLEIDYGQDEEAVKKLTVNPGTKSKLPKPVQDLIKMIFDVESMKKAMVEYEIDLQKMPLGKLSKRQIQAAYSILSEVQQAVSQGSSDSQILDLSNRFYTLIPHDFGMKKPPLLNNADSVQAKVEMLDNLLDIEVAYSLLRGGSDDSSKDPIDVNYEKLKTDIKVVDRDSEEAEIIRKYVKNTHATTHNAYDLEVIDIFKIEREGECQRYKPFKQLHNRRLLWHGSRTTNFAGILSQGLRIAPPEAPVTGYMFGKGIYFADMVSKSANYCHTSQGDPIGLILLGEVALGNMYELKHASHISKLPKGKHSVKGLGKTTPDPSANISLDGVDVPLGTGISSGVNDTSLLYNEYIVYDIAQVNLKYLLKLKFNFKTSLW

Cn1ncnc1[C@H]1c2n[nH]c(=O)c3cc(F)cc(c23)N[C@@H]1c1ccc(NC(=O)CCCCCNC(=O)c2ccc(N3C(=S)N(c4ccc(C#N)c(C(F)(F)F)c4)C(=O)C3(C)C)cc2F)cc1 [Compound 1.3, 4-(3-(4-cyano-3-(trifluoromethyl)phenyl)-5,5-dimethyl-4-oxo-2-thioxoimidazolidin-1-yl)-2-fluoro-N-(6-((4-((8S,9R)-5-fluoro-9-(1-methyl-1H-1,2,4-triazol-5-yl)-3-oxo-2,7,8,9-tetrahydro-3H-pyrido[4,3,2-de]phthalazin-8-yl)phenyl)amino)-6-oxohexyl)benzamide]
IC50 (Human recombinant PARP1): 2 nM | IC50 (Human recombinant PARP2): 0.5 nM | IC50 (LNCaP cells): 490 nM | IC50 (PC-3 cells): 8800 nM | IC50 (HCT-116 cells): > 30000 nM

Cn1ncnc1[C@H]1c2n[nH]c(=O)c3cc(F)cc(c23)N[C@@H]1c1ccc(NC(=O)CCCCCO[C@H]2CC[C@H]3[C@@H]4CC[C@H]5CC(=O)CC[C@]5(C)[C@H]4CC[C@]23C)cc1 [Compound 1.4, 6-(((5S,8R,9S,10S,13S,14S,17S)-10,13-dimethyl-3-oxohexadecahydro-1H-cyclopenta[a]phenanthren-17-yl)oxy)-N-(4-(5-fluoro-9-(1-methyl-1H-1,2,4-triazol-5-yl)-3-oxo-2,7,8,9-tetrahydro-3H-pyrido[4,3,2-de]phthalazin-8-yl)phenyl)hexanamide]
IC50 (Human recombinant PARP1): 2 nM | IC50 (Human recombinant PARP2): 0.4 nM | IC50 (LNCaP cells): 90 nM | IC50 (PC-3 cells): 20 nM | IC50 (HCT-116 cells): 110 nM

C[C@](O)(CS(=O)(=O)c1ccc(OCCCCCCN2CCN(C(=O)c3cc(Cc4n[nH]c(=O)c5ccccc45)ccc3F)CC2)cc1)C(=O)Nc1ccc(C#N)c(C(F)(F)F)c1 [Compound 1.96, (R)-N-(4-cyano-3-(trifluoromethyl)phenyl)-3-(4-(6-(4-(2-fluoro-5-((4-oxo-3,4-dihydrophthalazin-1-yl)methyl)benzoyl)piperazin-1-yl)hexyloxy)phenylsulfonyl)-2-hydroxy-2-methylpropanamide]
IC50 (Human recombinant PARP1): 6 nM | IC50 (Human recombinant PARP2): 0.5 nM

C[C@]12CCCC[C@@H]1CC[C@@H]1[C@@H]2CC[C@]2(C)[C@@H](OCCCCCC(=O)N3CCN(C(=O)c4cc(Cc5n[nH]c(=O)c6ccccc56)ccc4F)CC3)CC[C@@H]12 [Compound 1.115]
IC50 (Human recombinant PARP1): 25.7 nM | IC50 (Human recombinant PARP2): 1.5 nM

C[C@]12CC[C@@H]3c4ccc(O)cc4CC[C@H]3[C@@H]1CC[C@@H]2OCCCCCC(=O)N1CCN(C(=O)c2cc(Cc3n[nH]c(=O)c4ccccc34)ccc2F)CC1 [Compound 2.2, 4-(4-fluoro-3-(4-(6-((8R,9S,13S,14S,17S)-3-hydroxy-13-methyl-7,8,9,11,12,13,14,15,16,17-decahydro-6H-cyclopenta[a]phenanthren-17-yloxy)hexanoyl)piperazine-1-carbonyl)benzyl)phthalazin-1(2H)-one]
IC50 (22RV1 cells): 390 nM

Cn1ncnc1[C@@H]1c2n[nH]c(=O)c3cc(F)cc(c23)N[C@H]1c1ccc(NC(=O)CCCCCNC(=O)c2ccc(N3C(=S)N(c4ccc(C#N)c(C(F)(F)F)c4)C(=O)C3(C)C)cc2F)cc1 [ent-1.3, 4-(3-(4-cyano-3-(trifluoromethyl)phenyl)-5,5-dimethyl-4-oxo-2-thioxoimidazolidin-1-yl)-2-fluoro-N-(6-((4-((8R,9S)-5-fluoro-9-(1-methyl-1H-1,2,4-triazol-5-yl)-3-oxo-2,7,8,9-tetrahydro-3H-pyrido[4,3,2-de]phthalazin-8-yl)phenyl)amino)-6-oxohexyl)benzamide]
IC50 (Human recombinant PARP1): 79 nM | IC50 (Human recombinant PARP2): 16 nM | IC50 (LNCaP cells): > 100000 nM
